Molecules are shown by their SMILES.

The results in this text go back to article PMC5607274, “An iterative compound screening contest method for identifying target protein inhibitors using the tyrosine-protein kinase Yes” (Scientific Reports, 2017).

This experiment deals with T1, human recombinant Yes [a.a. 2–543 (end)] (Homo sapiens, UniProt P07947).
T1 construct: human recombinant Yes [a.a; 2–543 (end)]; purchased BPS Bioscience 40488
T1 sequence (P07947 2-543): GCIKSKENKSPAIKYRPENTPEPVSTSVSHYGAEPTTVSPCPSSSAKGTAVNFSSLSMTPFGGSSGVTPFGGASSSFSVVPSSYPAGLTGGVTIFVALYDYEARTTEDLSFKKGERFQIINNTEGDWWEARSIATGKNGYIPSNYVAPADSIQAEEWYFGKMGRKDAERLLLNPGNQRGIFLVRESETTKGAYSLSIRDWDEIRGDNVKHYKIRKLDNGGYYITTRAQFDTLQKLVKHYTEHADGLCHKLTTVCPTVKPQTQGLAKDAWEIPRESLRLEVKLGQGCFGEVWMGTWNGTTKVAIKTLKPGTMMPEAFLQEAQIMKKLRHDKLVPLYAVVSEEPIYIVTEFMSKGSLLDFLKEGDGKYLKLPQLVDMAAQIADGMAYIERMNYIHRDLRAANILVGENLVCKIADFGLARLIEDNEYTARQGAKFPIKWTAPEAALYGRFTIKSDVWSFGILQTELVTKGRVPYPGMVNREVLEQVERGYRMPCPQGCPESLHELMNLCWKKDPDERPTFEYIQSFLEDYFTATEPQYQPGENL
Nature of the experiment: ADP-Glo kinase assay, inhibition rates of Yes phosphorylation activity (first and second screening). Type of experiment: biochemical. As to conditions: first screening; mean of n = 4 wells; 10 μmol L−1 compound. The method, boiled down:
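ADP-Glo luminescence measured inhibition of human recombinant Yes (a.a. 2–543) phosphorylation activity. In the first screen, each compound ran in 4 wells and inhibition rates were averaged. The second screen retested hits as compounds dissolved from fresh powder.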
(In ADP-Glo the light output rises with the ADP produced.)
Consider `FC(F)(F)c1ccnc(Nc2ccc(N3CCOCC3)cc2)n1` [Compound Z285679120], for which the “First screening IR (inhibition rate)” value is on record as 7%.

Consider `OC1CCC(Nc2ncnc3cccc(I)c23)CC1` (centres unmarked) [Compound Z1661333590], for which the “First screening IR (inhibition rate)” value amounted to 10%.

As for `CCn1ncc2c(C(=O)NCc3cc(OC)c(OC)cc3OC)cc(-c3ccccc3)nc21` [Compound Z224953910], the “First screening IR (inhibition rate)” value worked out at 2%.

With `Cc1nn(CC(C)C)c2sc(C(=O)Nc3nc(-c4ccccn4)cs3)cc12` [Compound Z29467100], the “First screening IR (inhibition rate)” value is reported as 0%.

On to `CC(C)n1ncc2c(C(=O)Nc3ccccc3)cc(-c3ccccc3)nc21` [Compound Z51820408], for which the “First screening IR (inhibition rate)” value is reported as -10%.

Regarding `Cc1ccccc1Nc1nc(N)nc(CSCC(=O)N2CCCCC2)n1` [Compound Z45354084], the “First screening IR (inhibition rate)” value is on record as 18%.

Take `O=C1Nc2ccccc2/C1=C\c1cnn(-c2ccccc2)c1` [Compound Z95045593]: the “First screening IR (inhibition rate)” value is 32%.

Turning to `CCCn1c(=O)c2ccccc2n2c(=S)n(CN3CCC(C(=O)Nc4cc(C)ccn4)CC3)nc12` [Compound Z573186768], the “First screening IR (inhibition rate)” value is reported as -4%.

For the compound `CC(C)(C)C1CCC(C(=O)Nc2nc(-c3ccccn3)cs2)CC1` (centres unmarked) [Compound Z29467784], the “First screening IR (inhibition rate)” value is on record as 7%.

Turning to `CCN(CC)CCn1c(NC(=O)c2cc3c(C)nn(-c4ccc(Cl)cc4)c3s2)nc2ccccc21` [Compound Z29249972], the “First screening IR (inhibition rate)” value is listed as -12%.

With `Cc1ccc(NC(=O)CSc2ncnc3ccccc23)cc1F` [Compound Z19314901], the “First screening IR (inhibition rate)” value was found to be 4%.

On to `Clc1ccccc1Cn1ncc2c(N3CCOCC3)ncnc21` [Compound Z1172235408], for which the “First screening IR (inhibition rate)” value was -4%.

As for `Cc1nn(CCC(=O)O)c2nc(-c3cccs3)cc(C(=O)O)c12` [Compound Z295455358], the “First screening IR (inhibition rate)” value is listed as -2%.

In the case of `CS(=O)(=O)C1CSCCN1S(=O)(=O)c1ccc(Br)cc1Cl` (centres unmarked) [Compound Z1274438175], the “First screening IR (inhibition rate)” value is listed as -18%.

`CCOC(=O)/C(C#N)=C\C1=C2OC(c3ccccc3)=CC(c3ccccc3)=C2CCC1` [Compound Z56780975]: the “First screening IR (inhibition rate)” value is recorded as -7%.

Regarding `O=C(Nc1ccc(F)cc1)NC1CCN(c2ncnc3nc[nH]c23)C1` (centres unmarked) [Compound Z1193297141], the “First screening IR (inhibition rate)” value is on record as -11%.

Take `O=C(CCCC1CCCCC1)Nc1ccc(-c2cnc[nH]2)cc1` [Compound Z91026356]: the “First screening IR (inhibition rate)” value worked out at 0%.

As to `CC(C)N(CCNC(=O)CCc1nnc2n(Cc3ccccc3)c(=O)c3ccccc3n12)Cc1ccco1` [Compound Z1169067733], the “First screening IR (inhibition rate)” value is 3%.

In the case of `Cc1ccc(Cn2c(=O)c3ccccc3n3c(CCC(=O)NCCCN4CCC(C)CC4)nnc23)cc1` [Compound Z1169067743], the “First screening IR (inhibition rate)” value was found to be 18%.

With `CC(C)c1ccc(S(=O)(=O)NC(C)c2ccc(-n3ccnc3)cc2)cc1` (centres unmarked) [Compound Z45488257], the “First screening IR (inhibition rate)” value is -8%.

For `O=C(CSc1n[nH]c(-c2cccs2)n1)Nc1ccc(-c2ccccc2)cc1` [Compound Z19449989], the “First screening IR (inhibition rate)” value was determined as 4%.

Turning to `Cl.Fc1ccccc1-c1cc(-c2ccccc2F)c2cc(Cl)ccc2n1` [Compound Z48955797], the “First screening IR (inhibition rate)” value worked out at 11%.

Turning to `CCCN(C1CCS(=O)(=O)C1)S(=O)(=O)c1ccccc1Cl` (centres unmarked) [Compound Z45480819], the “First screening IR (inhibition rate)” value is -1%.

As to `COc1ccc(Nc2nc(N3CCCCC3)nc(N)c2[N+](=O)[O-])cc1` [Compound Z245295930], the “First screening IR (inhibition rate)” value was found to be 8%.

For `CNS(=O)(=O)c1ccc(NC(=O)c2cn(-c3ccccc3)nc2-c2cccnc2)cc1` [Compound Z101840388], the “First screening IR (inhibition rate)” value was 11%.

As for `COc1ccccc1-c1nnc(SCC(=O)c2ccc(NC(C)=O)cc2F)n1-c1ccccc1` [Compound Z51187459], the “First screening IR (inhibition rate)” value was 0%.
